Measured values as given in US20020128185A1, “Pharmaceutical compounds” (priority 1998, published 2002).
Entries after “also recorded” stand apart in the source; their conditions may differ.

Tests used:
[1] = test system: A-10 rat aortic smooth muscle cells; assay: Immunofluorescence assays of the cytoskeleton in A-10 cells; format: cell-based; conditions: for Microtubule repolymerization after removal of drug: 100 nM for 24 hr
Description: A-10 cells are grown to near-confluency on glass coverslips in BME/10% FBS. Compounds in PBS are added to the indicated final concentrations and cells are incubated for an additional 24 hours. For the staining of microtubules and intermediate filaments, the cells are fixed with cold methanol and incubated with PBS containing 10% calf serum to block nonspecific binding sites. Cells are then incubated at 37° C for 60 min. with either monoclonal anti-S-tubulin or with monoclonal anti-vimentin at dilutions recommended by the manufacturer. Bound primary antibodies are subsequently visualized by a 45-minute incubation with fluorescein-conjugated rabbit antimouse IgG. The coverslips are mounted on microscope slides and the fluorescence patterns are examined and photographed using a Zeiss Photomicroscope Ill equipped with epifluorescence optics for fluorescein. […] PBS containing 100 nM TRITC-phalloidin is then added and the mixture is allowed to incubate for 45 min. at 37° C. The cells are washed rapidly with PBS before the coverslips are mounted and immediately photographed as described above.
After 24 hours, microtubules and vimentin intermediate filaments are visualized by indirect immunofluorescence and microfilaments are stained using TRITC-phalloidin. The morphological effects of each drug is examined.
After 24 hours, microtubule organization is examined by immunofluorescence as described above.
The cells are then washed and incubated in drug-free medium for periods of 1 hour or 24 hours. […] Cells are visualized for microtubule state after treatment with a cryptophycin compound of this invention at either 1 hour or 24 hours after removal of the cryptophycin compounds.

[2] = test system: SKVLB1 cells (vinblastine-resistant, P-glycoprotein-overexpressing sub-line of SKOV3); assay: Inhibition of growth of SKVLB1 cells; format: cell-based; conditions: Homo sapiens
Description: The Jurkat T cell leukemia line and A-10 rat aortic smooth muscle cells are obtained from the American Type Culture Collection and are cultured in BME containing 10% FBS and 50 μg/mL gentamycin sulfate. […] Both cell lines are maintained in BME containing 10% FBS and 50 μg/mL gentamycin sulfate.
Cell proliferation assays are performed as described by Skehan et al. For Jurkat cells, cultures are treated with the indicated drugs as described in Skehan and total cell numbers are determined by counting the cells in a hemacytometer. The percentage of cells in mitosis are determined by staining with 0.4% Giemsa in PBS followed by rapid washes with PBS. At least 1000 cells per treatment are scored for the presence of mitotic figures and the mitotic index is calculated as the ration of the cells with mitotic figures to the total number of cells counted.
SKVLB1 cells are resistant to natural product anticancer drugs because of their over expression of P-glycoprotein.

## CC[C@]1(O)C[C@@H]2CN(CCc3c([nH]c4ccccc34)[C@@](C(=O)OC)(c3cc4c(cc3OC)N(C)[C@H]3[C@@](O)(C(=O)OC)[C@H](OC(C)=O)[C@]5(CC)C=CCN6CC[C@]43[C@@H]65)C2)C1 [Vinblastine, vinblastine]
[1]; then 1 hour in drug-free medium
  Microtubule repolymerization after removal of drug: significant levels of microtubules after 1 hour
[1]; then 24 hours in drug-free medium
  Microtubule repolymerization after removal of drug: complete morphological recovery by 24 hour
[1]; 100 nM vinblastine, 24 hours, not pretreated
  Effect on microtubules: complete depolymerization of microtubules; also recorded: complete microtubule depolymerization
[2]
  IC50: 4.2 µM

## COc1ccc(C[C@H]2NC(=O)/C=C/C[C@@H]([C@H](C)/C=C/c3ccccc3)OC(=O)[C@H](CC(C)C)NC(=O)CC(CC(C)C)NC2=O)cc1Cl (stereo partly shown)
other
  melting point: 258 to 260 °C

## C=C1[C@@H](C)[C@H]2[C@H](Cc3ccccc3)NC(=O)[C@]23OC(=O)/C=C/[C@H](O)CCC[C@@H](C)C/C=C/[C@H]3[C@@H]1O [Cytochalasin B, cytochalasin B]
[1]; 2 μM cytochalasin B, 24 hours
  Effect on distribution of microtubules and intermediate filaments: did not affect the distribution of either microtubules or intermediate filaments
[1]; 2 μM cytochalasin B, 24 hours, TRITC-phalloidin staining
  Effect on microfilaments: complete depolymerization of microfilaments

## CC(=O)O[C@H]1C(=O)[C@@]2(C)[C@H]([C@H](OC(=O)c3ccccc3)[C@]3(O)C[C@H](OC(=O)[C@H](O)[C@@H](NC(=O)c4ccccc4)c4ccccc4)C(C)=C1C3(C)C)[C@]1(OC(C)=O)CO[C@@H]1C[C@@H]2O [Taxol, taxol]
[1]; 10 μM taxol, compared with control cells
  Microtubule organization in taxol-treated cells: extensively bundled
[1]; 3 hours 10 μM taxol before 100 nM vinblastine, 24 hours
  Effect of taxol pretreatment on vinblastine-induced microtubule depolymerization: prevented microtubule depolymerization in response to vinblastine
[2]
  IC50: 8 µM
